In PMC6675120, “Potent and selective inhibitors for M32 metallocarboxypeptidases identified from high-throughput screening of anti-kinetoplastid chemical boxes” (PLoS Neglected Tropical Diseases, 2019):
Values joined by “and” are separate entries in the source; they are usually repeats but may differ in a detail not shown here. Equal entries are not always repeated. Where two headings read alike, the source gives them in different places.

Tests used:
TbMCP-1 = TbMCP-1 (Trypanosoma brucei, UniProt Q386R0); test: Continuous fluorogenic (FRET) TbMCP-1 assay with Abz-RFFK(Dnp)-OH, primary and secondary screening; assay type: biochemical; settings: for TbMCP-1 2º/1º ratio: secondary (31,5 µM) / primary (25 µM) inhibition; for TbMCP-1 Primary screening Inhibition (%): single inhibitor concentration 25 µM; for TbMCP-1 Secondary screening Inhibition (%): single inhibitor concentration 31,5 µM
Chain of TbMCP-1 (Q386R0 entry or part of it): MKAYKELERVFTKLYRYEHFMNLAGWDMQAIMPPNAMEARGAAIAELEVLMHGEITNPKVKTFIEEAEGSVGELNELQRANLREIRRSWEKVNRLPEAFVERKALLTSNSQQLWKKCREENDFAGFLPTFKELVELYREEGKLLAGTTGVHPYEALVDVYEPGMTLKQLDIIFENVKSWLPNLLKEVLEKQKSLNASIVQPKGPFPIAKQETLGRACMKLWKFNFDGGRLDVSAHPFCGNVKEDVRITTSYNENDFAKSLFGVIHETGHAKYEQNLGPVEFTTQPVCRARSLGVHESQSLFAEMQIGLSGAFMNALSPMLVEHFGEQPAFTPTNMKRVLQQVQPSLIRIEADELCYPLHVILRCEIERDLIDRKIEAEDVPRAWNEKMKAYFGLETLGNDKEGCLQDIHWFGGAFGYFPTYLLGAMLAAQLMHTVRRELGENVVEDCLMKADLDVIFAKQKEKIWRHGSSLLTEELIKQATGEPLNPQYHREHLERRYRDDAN
Experimental: (§1) TcMCP-1 (MEROPS ID: M32.003) and TbMCP-1 were expressed as GST fusion proteins in E. coli BL21 (DE3) Codon Plus and purified as previously described.
(§2) TbMCP-1 and TcMCP-1 activities were assayed fluorometrically with Abz-RFFK(Dnp)-OH and Abz-LKFK(Dnp)-OH substrates, respectively, in 100 mM MOPS pH 7,2 containing 0,01% Triton X-100. Assays were performed in solid black 384-well plates (final reaction volume ~80 μL) and the hydrolysis of the K(Dnp)-OH group was monitored continuously at 30 °C with a Beckman Coulter DTX 880 Multimode Reader (Radnor, Pennsylvania, USA) using standard 320 nm excitation and 420 nm emission filter set.
(§3) In all cases, EDTA (final concentration 31,25 mM) was used as positive inhibition control.
(§4) Then, 40 μL of 100 mM MOPS, 0,01% Triton X-100 pH 7,2 containing TbMCP-1 (2,50 nM) or TcMCP-1 (0,34 nM) were added to each well, plates were homogenized (30 seg, orbital, medium intensity) and each well subjected to a single autofluorescence read (ex/em = 320/420 nm). Plates were incubated in darkness for 15 min at 30 °C and then 40 μL of Abz-RFFK(Dnp)-OH (4 μM) or Abz-LKFK(Dnp)-OH (0,8 μM) in assay buffer were added to each well to start the reaction. After homogenization (30 seg, orbital, medium intensity), the fluorescence of the Abz group (ortho-aminobenzoic acid) (ex/em = 320/420 nm) was acquired kinetically for each well (8 read cycles, one cycle every 300 seconds). Considering our previous experiences, the auto-fluorescent cut-off was arbitrarily set at 2x10^5 RFU to discard highly interfering compounds. All compounds were assayed in singlet (without replicates) due to the limited availability of stocks.
(§5) Raw screening measurements were used to determine the slope (dF/dt) of progression curves by linear regression for control and non-interfering compound wells. In the case of control-dependent hit selection criteria, percent inhibition percentage (%Inh) was calculated for each compound according to the following equation: Inh=100∙[1−(dF/dt^WELL−μ^C−)/(μ^C+−μ^C−)] (1) where dF/dt^WELL represents the slope of each compound well and μ^C+ and μ^C− the average of MCP (no-inhibition) and substrate (no-enzyme) controls, respectively.
(§6) To avoid any positional and/or association bias, we randomly defined the row position for each compound. One μL of compounds stock (10 mM in DMSO) and EDTA (31,25 mM) were added to the first well of column 1, followed by addition of 40 μL of 100 mM MOPS, 0,01% Triton X-100 pH 7,2 buffer. After addition of 20 μL of the same buffer to subsequent wells of the plate, 22 serial 2-fold dilutions were made horizontally. The last two positions of every row were used, alternatively, for C^+ and C^− controls to reduce any positional and/or association bias. Then, 20 μL of activity buffer containing TbMCP-1 or TcMCP-1 were added to each well, except for those corresponding to C^−; completed with 20 μL of activity buffer. After homogenization, 15 minutes of incubation at 30°C and autofluorescence measurement, the substrate (in activity buffer) was added to the previous mix. Data collection and processing were performed exactly as described above. Percentage of M32 MCPs residual activity was calculated for each condition according to the following equation: %Res.Act^MCP=100∙[(dF/dt^WELL−μ^C−)/(μ^C+−μ^C−)] (2) where dF/dt^WELL represents the slope of each compound well and μ^C+ and μ^C− the average of MCP (no-inhibition) and substrate (no-enzyme) controls, respectively.

TcMCP-1 = TcMCP-1 (Trypanosoma cruzi, UniProt Q6ZXC0); test: Continuous fluorogenic (FRET) TcMCP-1 assay with Abz-LKFK(Dnp)-OH, primary and secondary screening; assay type: biochemical; design: inhibition: dose or concentration left out as unconfirmed; settings: for TcMCP-1 Hill Slope: four-parameter Hill fit of dose-response curve; for TcMCP-1 2º/1º ratio: secondary (31,5 µM) / primary (25 µM) inhibition; for TcMCP-1 Secondary screening Inhibition (%): single inhibitor concentration 31,5 µM
Chain of TcMCP-1 (Q6ZXC0 entry or part of it): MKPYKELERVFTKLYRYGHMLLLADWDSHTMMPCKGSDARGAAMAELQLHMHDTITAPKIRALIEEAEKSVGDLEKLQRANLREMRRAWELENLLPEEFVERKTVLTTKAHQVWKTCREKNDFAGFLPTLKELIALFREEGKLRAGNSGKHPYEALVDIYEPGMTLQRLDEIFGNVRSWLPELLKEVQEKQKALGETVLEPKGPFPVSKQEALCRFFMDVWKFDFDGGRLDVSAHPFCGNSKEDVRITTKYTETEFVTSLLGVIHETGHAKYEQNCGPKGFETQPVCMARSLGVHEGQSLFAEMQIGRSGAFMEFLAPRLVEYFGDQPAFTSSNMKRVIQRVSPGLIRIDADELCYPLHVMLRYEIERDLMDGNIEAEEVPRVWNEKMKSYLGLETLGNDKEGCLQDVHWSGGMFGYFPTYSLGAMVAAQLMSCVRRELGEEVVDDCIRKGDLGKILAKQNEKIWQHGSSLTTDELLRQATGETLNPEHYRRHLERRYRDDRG
Experimental: as §1, §2, §3, §4, §5
as §6, with “Compounds selected from primary screening were re-tested in a dose-response manner (final concentration ranging from […] to 62,5 μM) using identical assay conditions. To” for “To”

[1] = single inhibitor concentration 25 µM
[2] = secondary screening, two-fold dilutions 7,5 pM to 62,5 μM, KM/[S] ~ 1, no replicates

| SMILES | IC50 (TbMCP-1) | TbMCP-1 Hill Slope (TbMCP-1; four-parameter Hill fit of dose-response curve) | TbMCP-1 2º/1º ratio (TbMCP-1) | TbMCP-1 Primary screening Inhibition (%) (TbMCP-1) | TbMCP-1 Secondary screening Inhibition (%) (TbMCP-1) | IC50 (TcMCP-1) | TcMCP-1 Hill Slope (TcMCP-1) | TcMCP-1 2º/1º ratio (TcMCP-1) | TcMCP-1 Primary screening Inhibition (%) (TcMCP-1; [1]) | TcMCP-1 Secondary screening Inhibition (%) (TcMCP-1) | inhibition at 25 µM (TbMCP-1; read-out: TbMCP-1 Primary screening Inhibition (%)) | inhibition (TcMCP-1; read-out: TcMCP-1 Secondary screening Inhibition (%)) | IC50 (TcMCP-1; [2]) | inhibition at 25 µM (TcMCP-1; [1]) | TbMCP-1 Primary screening Inhibition (%) (TbMCP-1; 25 µM) |
| --- | --- | --- | --- | --- | --- | --- | --- | --- | --- | --- | --- | --- | --- | --- | --- |
| COc1ccc2ncc(Cl)c(CCN3CC[C@@H](NCc4cc5c(cn4)OCS5)[C@H](O)C3)c2n1 [TCMDC-143513] | 28.3 µM | -0,8371 | 0,76 | 56,08% | 42,64% | 13.5 µM | -0,9734 | 1,07 | 65,65% | 70,48% | – | – | – | – | – |
| COc1cc(Nc2nccc(Nc3onc(C)c3C)n2)cc(S(=O)(=O)C2CCOCC2)c1 [TCMDC-143462] | – | – | 0,13 | 47,90% | 6,29% | 15.5 µM | -0,9436 | 1,40 | 43,06% | 60,29% | – | – | – | – | – |
| CS(=O)(=O)c1cccc(CNC(=O)c2cncc(N3CCN(c4ccc(F)cc4)CC3)c2)c1 [TCMDC-143385] | – | – | – | – | – | – | -0,9614 | 1,88 | – | – | < 40% | 80.8% | ≤ 10 µM and ~10 µM | 42.9% | – |
| O=C(Nc1nc2cc(Cl)ccc2o1)c1cccc(Cl)c1 [TCMDC-143172] | – | – | -0,04 | – | -1,57% | 11.2 µM | -2,825 | 1,30 | 65,01% | 84,56% | – | – | ~10 µM | – | 42,44% |
